Results published in patent US20220002279A1, “NOVEL IMIDAZOLE DERIVATIVE” (priority 2018, published 2022).
In brackets after ≈: the same amount, converted by molar mass. Like-named read-outs stand apart in the source and are kept apart here.

Assays:
[1] = molecular target: T1, Escherichia coli LpxC enzyme (Escherichia coli, UniProt P0A725); experiment: Inhibitory activity on Escherichia coli LpxC enzyme (fluorescamine method); type: biochemical
T1 construct: made in house; host or cells: Escherichia coli
T1 sequence (P0A725 1-305): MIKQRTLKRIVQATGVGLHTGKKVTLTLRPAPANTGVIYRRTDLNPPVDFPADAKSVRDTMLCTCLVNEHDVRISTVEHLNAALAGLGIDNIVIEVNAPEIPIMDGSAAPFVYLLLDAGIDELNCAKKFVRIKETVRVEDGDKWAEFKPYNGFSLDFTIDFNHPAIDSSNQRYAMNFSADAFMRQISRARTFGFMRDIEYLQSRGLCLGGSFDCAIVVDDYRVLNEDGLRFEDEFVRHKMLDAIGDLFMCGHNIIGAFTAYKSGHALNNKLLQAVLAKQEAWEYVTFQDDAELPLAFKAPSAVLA
Outline: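 LpxC reacted with UDP-3-O-(R-3-hydroxymyristoyl)-N-acetylglucosamine; product amine quantified after fluorescamine stop and pH 8.0 phosphate buffer addition, at 390 nm/495 nm. Inhibition curve built from a range of test compound concentrations.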

[2] = test system: Escherichia coli strain ATCC25922; experiment: Antimicrobial activity, MIC by broth microdilution; type: cell-based; details: ATCC25922, 18 h, read-out: MIC Escherichia coli ATCC25922
Outline: (§1)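 MIC read by eye as the lowest drug level lacking visible growth after roughly 18 h at 35° C. Cells from heart infusion agar, set to McFarland 0.5 and diluted, were inoculated at about 5×10^5 CFU/mL into cation-adjusted Mueller-Hinton broth with compound, per adapted CLSI microdilution.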

[3] = test system: Klebsiella pneumoniae strain ATCC13883; experiment: Antimicrobial activity, MIC by broth microdilution; type: cell-based; details: read-out: MIC Klebsiella pneumoniae ATCC13883
Outline: as §1

[4] = test system: Pseudomonas aeruginosa strain ATCC27853; experiment: Antimicrobial activity, MIC by broth microdilution; type: cell-based; details: ATCC27853, 18 h, read-out: MIC Pseudomonas aeruginosa ATCC27853
Outline: as §1

[5] = fluorescamine detection, 3.1 nmol/L enzyme, 20 μmol/L substrate, pH 6.5, 120 min, read-out: IC50 (inhibitory activity on Escherichia coli LpxC enzyme, Fluoresamine method)
[6] = cation-adjusted Mueller-Hinton broth, about 5×10^5 CFU/mL, 35° C., about 18 hours
[7] = ATCC13883, cation-adjusted Mueller-Hinton broth, about 5×10^5 CFU/mL, 35° C., about 18 hours

`C[C@H](O)c1nccn1Cc1cc(-c2ccc(C#CC3CCN(C=O)CC3)cc2)on1` [Compound 127, 4-({4-[3-({2-[(1S)-1-hydroxyethyl]-1H-imidazol-1-yl}methyl)-1,2-oxazol-5-yl]phenyl}ethynyl)piperidine-1-carbaldehyde] gave an IC50 [1, 5] of 60.1 nM, an MIC [2, 6] of 2 µg/mL (≈ 4.94 µM) and an MIC [3, 7] of 2 µg/mL (≈ 4.94 µM). It also gave an MIC [4, 6] greater than 64 µg/mL.
In the case of `C[C@H](O)c1nccn1Cc1cc(-c2ccc(C#C[C@@H]3[C@H]4CN(C(N)=O)C[C@@H]34)cc2)on1` [Compound 71, (1R,5S,6s)-6-({4-[3-({2-[(1S)-1-Hydroxyethyl]-1H-imidazol-1-yl}methyl)-1,2-oxazol-5-yl]phenyl}ethynyl)-3-azabicyclo[3.1.0]hexane-3-carboxamide], the IC50 [1, 5] is reported as 29 nM, the MIC [2, 6] is reported as 1 µg/mL (≈ 2.4 µM) and the MIC [3, 7] is reported as 2 µg/mL (≈ 4.79 µM). It also gave an MIC [4, 6] greater than 16 µg/mL.
In the case of `C[C@H](O)c1nccn1Cc1cc(-c2ccc(C#C[C@@H]3[C@H]4CN(CCCCC(=O)O)C[C@@H]34)cc2)on1` [Compound 93, 5-[(1R,5S,6s)-6-({4-[3-((2-[(1S)-1-hydroxyethyl]-1H-imidazol-1-yl}methyl)-1,2-oxazol-5-yl]phenyl}ethynyl)-3-azabicyclo[3.1.0]hexan-3-yl]pentanoic acid], the IC50 [1, 5] is reported as 371 nM, the MIC [2, 6] is reported as 4 µg/mL (≈ 8.43 µM) and the MIC [3, 7] is reported as 4 µg/mL (≈ 8.43 µM). The MIC [4, 6] was 8 µg/mL (≈ 16.9 µM).
In the case of `C[C@H](O)c1nccn1Cc1cc(-c2ccc(C#C[C@H]3C[C@H](NC=O)C3)cc2)on1` [Compound 103, N-[trans-3-({4-[3-({2-[(1S)-1-Hydroxyethyl]-1H-imidazol-1-yl}methyl)-1,2-oxazol-5-yl]phenyl}ethynyl)cyclobutyl]formamide], the IC50 [1] is reported as 88 nM, the MIC [2, 6] is reported as 1 µg/mL (≈ 2.56 µM) and the MIC [3, 7] is reported as 2 µg/mL (≈ 5.12 µM). It also gave an MIC [4, 6] greater than 128 µg/mL.
Work on `CC(=O)N1CC(C#Cc2ccc(-c3cc(Cn4ccnc4[C@H](C)O)no3)cc2)C1` [Compound 69, 1-[3-({4-[3-({2-[(1S)-1-hydroxyethyl]-1H-imidazol-1-yl}methyl)-1,2-oxazol-5-yl]phenyl}ethynyl)azetidin-1-yl]ethan-1-one] yielded an IC50 [1, 5] of 54.2 nM, an MIC [2, 6] of 4 µg/mL (≈ 10.2 µM) and an MIC [3, 7] of 8 µg/mL (≈ 20.5 µM). For the same compound, the MIC [4, 6] was 64 µg/mL (≈ 164 µM).
With `C[C@H](O)c1nccn1Cc1cc(-c2ccc(C#CC3CC(N(C)C)C3)cc2)on1` (stereo partly drawn) [Compound 97, (1S)-1-(i{[5-(4-{[3-(dimethylamino)cyclobutyl]ethynyl}phenyl)-1,2-oxazol-3-yl]methyl}-1H-imidazol-2-yl)ethan-1-ol] the IC50 [1, 5] was 99.7 nM, the MIC [2, 6] was 4 µg/mL (≈ 10.2 µM) and the MIC [3, 7] was 8 µg/mL (≈ 20.5 µM). It also gave an MIC [4, 6] of 32 µg/mL (≈ 81.9 µM).
Work on `C[C@H](O)c1nccn1Cc1cc(-c2ccc(C#CC(C)(C)C)cc2)on1` [Compound 43, (1S)-1-[1-({5-[4-(3,3-dimethylbut-1-yn-1-yl)phenyl]-1,2-oxazol-3-yl}methyl)-1H-imidazol-2-yl]ethan-1-ol] yielded an IC50 [1, 5] of 47.1 nM, an MIC [2, 6] of 1 µg/mL (≈ 2.86 µM) and an MIC [3, 7] of 2 µg/mL (≈ 5.72 µM). For the same compound, the MIC [4, 6] was greater than 32 µg/mL.
`C[C@H](O)C(=O)N1C[C@@H]2[C@@H](C#Cc3ccc(-c4cc(Cn5ccnc5[C@H](C)O)no4)cc3)[C@@H]2C1` [Compound 77, (2S)-2-hydroxy-1-[(1R,5S,6R)-6-({4-[3-({2-[(1S)-1-hydroxyethyl]-1H-imidazol-1-yl}methyl)-1,2-oxazol-5-yl]phenyl}ethynyl)-3-azabicyclo[3.1.0]hexan-3-yl]propan-1-one] showed an IC50 [1, 5] of 67.4 nM, an MIC [2, 6] of 2 µg/mL (≈ 4.48 µM) and an MIC [3, 7] of 2 µg/mL (≈ 4.48 µM). For the same compound, the MIC [4, 6] was 32 µg/mL (≈ 71.7 µM).
Work on `C[C@H](O)c1nccn1Cc1cc(-c2ccc(C#CC3C4COCC34)cc2)on1` (stereo partly drawn) [Compound 46, (1S)-1-{1-[(5-{4-[(3-oxabicyclo[3.1.0]hexan-6-yl)ethynyl]phenyl}-1,2-oxazol-3-yl)methyl]-1H-imidazol-2-yl} ethan-1-ol] yielded an IC50 [1, 5] of 13.4 nM, an MIC [2, 6] of 0.12 µg/mL (≈ 0.32 µM) and an MIC [3, 7] of 0.12 µg/mL (≈ 0.32 µM). The MIC [4, 6] was greater than 32 µg/mL.
With `COC(=O)N1C[C@@H]2[C@@H](C#Cc3ccc(-c4cc(Cn5ccnc5[C@H](C)O)no4)cc3)[C@@H]2C1` [Compound 78, Methyl (1R,5S,6s)-6-({4-[3-({2-[(1S)-1-hydroxyethyl]-1H-imidazol-1-yl}methyl)-1,2-oxazol-5-yl]phenyl}ethynyl)-3-azabicyclo[3.1.0]hexane-3-carboxylate] the IC50 [1] was 13.8 nM, the MIC [2] was 0.5 µg/mL (≈ 1.16 µM) and the MIC ([3]; ATCC13883, 18 h) was 0.5 µg/mL (≈ 1.16 µM). For the same compound, the MIC [4] was 32 µg/mL (≈ 74 µM).
`C[C@H](O)c1nccn1[C@H](CN)c1cc(-c2ccc(C#CC3CC3)cc2)no1` [Compound 82, (1S)-1-{1-[(1R)-2-Amino-1-{3-[4-(cyclopropylethynyl)phenyl]-1,2-oxazol-5-yl}ethyl]-1H-imidazol-2-yl}ethan-1-ol] showed an IC50 [1, 5] of 82 nM, an MIC [2, 6] of 0.12 µg/mL (≈ 0.331 µM) and an MIC [3, 7] of 0.25 µg/mL (≈ 0.69 µM). It also gave an MIC [4, 6] of 16 µg/mL (≈ 44.1 µM).
Compound `C[C@H](O)c1nccn1Cc1cc(-c2ccc(C#CCO)cc2)on1` [Compound 48, 3-{4-[3-((2-[(1S)-1-hydroxyethyl]-1H-imidazol-1-yl}methyl)-1,2-oxazol-5-yl]phenyl}prop-2-yn-1-ol] has an IC50 [1, 5] of 362 nM, an MIC [2, 6] of 16 µg/mL (≈ 49.5 µM) and an MIC [3, 7] of 32 µg/mL (≈ 99 µM). The MIC [4, 6] was greater than 32 µg/mL.
Compound `C[C@H](O)c1nccn1Cc1cc(-c2ccc(C#CC3(C)CN(C)C3)cc2)on1` [Compound 35, (1S)-1-{1-[(5-{4-[(1,3-dimethylazetidin-3-yl)ethynyl]phenyl}-1,2-oxazol-3-yl)methyl]-1H-imidazol-2-yl}ethan-1-ol] has an IC50 [1, 5] of 815 nM, an MIC [2, 6] of 4 µg/mL (≈ 10.6 µM) and an MIC [3, 7] of 16 µg/mL (≈ 42.5 µM). For the same compound, the MIC [4, 6] was greater than 128 µg/mL.
Work on `C[C@H](O)c1nccn1Cc1cc(-c2ccc(C#CC3CC(NC4COC4)C3)cc2)on1` (stereo partly drawn) [Compound 112, (1S)-1-[l-({5-[4-({3-[(oxetan-3-yl)amino]cyclobutyl}ethynyl)phenyl]-1,2-oxazol-3-yl}methyl)-1H-imidazol-2-yl]ethan-1-ol] yielded an IC50 [1] of 79.7 nM, an MIC [2, 6] of 0.5 µg/mL (≈ 1.19 µM) and an MIC [3, 7] of 1 µg/mL (≈ 2.39 µM). For the same compound, the MIC [4, 6] was 32 µg/mL (≈ 76.5 µM).
`CC(O)CN1C[C@@H]2[C@@H](C#Cc3ccc(-c4cc(Cn5ccnc5[C@H](C)O)no4)cc3)[C@@H]2C1` (stereo partly drawn) [Compound 55, 1-[(1R,5S,6s)-6-({4-[3-({2-[(1S)-1-hydroxyethyl]-1H-imidazol-1-yl}methyl)-1,2-oxazol-5-yl]phenyl}ethynyl)-3-azabicyclo[3.1.0]hexan-3-yl]propan-2-ol] gave an IC50 [1, 5] of 97.7 nM, an MIC [2, 6] of 0.5 µg/mL (≈ 1.16 µM) and an MIC [3, 7] of 1 µg/mL (≈ 2.31 µM). The MIC [4, 6] was 16 µg/mL (≈ 37 µM).
Compound `C[C@H](O)c1nccn1Cc1cc(-c2ccc(C#CC3CN(C(=O)OC(C)(C)C)C3)cc2)on1` [Compound 68, tert-butyl 3-({4-[3-({2-[(1S)-1-hydroxyethyl]-1H-imidazol-1-yl}methyl)-1,2-oxazol-5-yl]phenyl}ethynyl)azetidine-1-carboxylate] has an IC50 [1, 5] of 13.6 nM, an MIC [2, 6] of 2 µg/mL (≈ 4.46 µM) and an MIC [3, 7] of 4 µg/mL (≈ 8.92 µM). The MIC [4, 6] was 32 µg/mL (≈ 71.3 µM).
`COCC1CC1C#Cc1ccc(-c2cc(Cn3ccnc3[C@H](C)O)no2)cc1` (stereo in doubt) [Compound 66, (1S)-1-(1-{[5-(4-{[trans-2-(Methoxymethyl)cyclopropyl]ethynyl}phenyl)-1,2-oxazol-3-yl]methyl}-1H-imidazol-2-yl)ethan-1-ol] was tested, and the IC50 [1] was less than 10 nM, the MIC [2, 6] was 0.12 µg/mL (≈ 0.318 µM) and the MIC [3, 7] was 0.12 µg/mL (≈ 0.318 µM). For the same compound, the MIC [4, 6] was 32 µg/mL (≈ 84.8 µM).
`COCC#Cc1ccc(-c2cc(Cn3ccnc3[C@H](C)O)no2)cc1` [Compound 53, (1S)-1-[l-((5-[4-(3-methoxyprop-1-yn-1-yl)phenyl]-1,2-oxazol-3-yl}methyl)-1H-imidazol-2-yl]ethan-1-ol] was tested, and the IC50 [1, 5] was 81.7 nM, the MIC [2, 6] was 4 µg/mL (≈ 11.9 µM) and the MIC [3, 7] was 2 µg/mL (≈ 5.93 µM). It also gave an MIC [4, 6] greater than 128 µg/mL.
With `C[C@H](O)c1nccn1Cc1cc(-c2ccc(C#C[C@@H]3[C@H]4CN(C)C[C@@H]34)cc2)on1` [Compound 36, (1S)-1-(1-{[5-(4-{[(1R,5S,6s)-3-methyl-3-azabicyclo[3.1.0]hexan-6-yl]ethynyl}phenyl)-1,2-oxazol-3-yl]methyl}-1H-imidazol-2-yl)ethan-1-ol] the IC50 [1, 5] was 98.7 nM, the MIC [2, 6] was 0.5 µg/mL (≈ 1.29 µM) and the MIC [3, 7] was 1 µg/mL (≈ 2.57 µM). It also gave an MIC [4, 6] of 16 µg/mL (≈ 41.2 µM).
Compound `COCC(=O)N1C[C@@H]2[C@@H](C#Cc3ccc(-c4cc(Cn5ccnc5[C@H](C)O)no4)cc3)[C@@H]2C1` [Compound 76, 1-[(1R,5S,6s)-6-({4-[3-({2-[(1S)-1-Hydroxyethyl]-1H-imidazol-1-yl}methyl)-1,2-oxazol-5-yl]phenyl}ethynyl)-3-azabicyclo[3.1.0]hexan-3-yl]-2-methoxyethan-1-one] has an IC50 [1, 5] of 38 nM, an MIC [2, 6] of 1 µg/mL (≈ 2.24 µM) and an MIC [3, 7] of 2 µg/mL (≈ 4.48 µM). For the same compound, the MIC [4, 6] was 32 µg/mL (≈ 71.7 µM).
In the case of `C[C@H](O)c1nccn1Cc1cc(-c2ccc(C#CC3CC3)cc2)on1` [Compound 26, (1S)-1-[1-({5-[4-(Cyclopropylethynyl)phenyl]-1,2-oxazol-3-yl}methyl)-1H-imidazol-2-yl]ethan-1-ol], the IC50 [1] is reported as less than 10 nM, the MIC [2, 6] is reported as 0.25 µg/mL (≈ 0.75 µM) and the MIC [3, 7] is reported as 0.25 µg/mL (≈ 0.75 µM). The MIC [4, 6] was greater than 8 µg/mL.
